Source: article PMC8657792, “Interaction Profiles of Central Nervous System Active Drugs at Human Organic Cation Transporters 1–3 and Human Plasma Membrane Monoamine Transporter” (International Journal of Molecular Sciences, 2021)
Like-named read-outs stand apart in the source and are kept apart here.

Key:
hOCT1 [1] = target: T1, hOCT1 (Homo sapiens, UniProt O15245); experiment: [3H]MPP+ uptake inhibition assay, HEK293 cells stably expressing hOCT1; assay type: cell-based; conditions: for Effect on substrate uptake by hOCT1 (in words): [3H]MPP+ uptake, HEK293 hOCT1
T1 construct: expressed in transfected cells
T1 sequence (O15245 1-554): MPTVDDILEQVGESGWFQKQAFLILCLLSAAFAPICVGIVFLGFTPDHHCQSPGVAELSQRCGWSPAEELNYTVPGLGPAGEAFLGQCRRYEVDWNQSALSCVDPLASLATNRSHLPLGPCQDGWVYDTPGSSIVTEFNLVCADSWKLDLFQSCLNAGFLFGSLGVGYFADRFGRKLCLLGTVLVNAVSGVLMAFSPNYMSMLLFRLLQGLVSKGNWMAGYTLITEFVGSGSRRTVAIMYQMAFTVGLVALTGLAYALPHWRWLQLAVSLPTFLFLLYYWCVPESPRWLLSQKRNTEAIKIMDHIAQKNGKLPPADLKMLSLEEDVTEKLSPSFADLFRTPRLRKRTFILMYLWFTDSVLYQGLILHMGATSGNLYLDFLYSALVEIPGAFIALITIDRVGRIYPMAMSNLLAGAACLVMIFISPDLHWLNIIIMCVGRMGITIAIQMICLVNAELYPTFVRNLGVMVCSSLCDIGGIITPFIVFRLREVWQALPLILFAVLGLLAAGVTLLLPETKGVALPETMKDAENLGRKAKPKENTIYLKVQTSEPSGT
Procedure: (§1) HEK293 cells were transfected with a plasmid, encoding the transporter of interest and an N-terminal YFP-tag, carried out using jetPRIME ^© (Polyplus Transfection; (VWR International GmbH, Vienna, Austria)) reagent (for a 10 cm dish with 1–2 × 10^6 cells in 10 mL serum containing medium at 60–80% confluency: 500 μ L jetPRIME ^© buffer, 10 μ g DNA and 20 μ L jetPRIME ^© reagent) and selection pressure maintained for two weeks [2, 54, 55]. Subsequently, 500,000 cells were FACS-sorted (fluorescence-activated cell sorting) according to expression level to establish cell lines stably expressing the protein of interest. […] For uptake inhibition assays, cells were cultured at a subconfluent (80–90% density) state in high-glucose Dulbecco’s Modified Eagle Medium (DMEM ), enriched with 10% heat-inactivated Fetal Bovine Serum (FBS) and penicillin/streptomycin (PS; 100 U × 100 mL ^−1 , each). Selection pressure was maintained by the addition of geneticin (50 mg × mL ^−1 ) at 37 ^∘ C and 5% CO 2 in a humidified incubator. At a density of 60,000 cells per well, HEK293 cells expressing the respective transporter were seeded onto poly-D-lysine-coated wells 24 h prior to uptake inhibition experiments in a final volume of 200 μ L per well.
(§2) Prior to the addition of the respective compounds, DMEM was removed from all wells and replaced with 200 μ L of Krebs-HEPES-buffer (KHB; 10 mM HEPES, 120 mM NaCl, 3 mM KCl, 2 mM CaCl 2 , 2 mM MgSO 4 and 20 mM D-glucose, pH adjusted to 7.3) at room temperature. Cells were exposed to a pre-incubation solution containing the compound of interest in the respective concentration (dissolved in Krebs-HEPES-buffer) for 10 min with a total volume of 50 μ L, which was then replaced with a 50 μ L uptake solution containing 0.05 μ M of tritiated 1-methyl-4-phenylpyridinium ([ ^3 H]MPP ^+ ) as substrate, and the compound of interest in respective concentrations, for 10 minutes each. Finally, uptake was terminated by washing with 200 μ L of ice-cold (4 ^∘ C) KHB, after which cells were lysed with 200 μ L of 1% sodium dodecyl sulphate (SDS). After transferring the solution of each well into 6 mL counting vials containing 2 mL of scintillation cocktail, the vials were measured with a beta-scintillation counter for quantification of the uptake of tritiated substrate. […] To obtain specific data, non-specific uptake was assessed in the presence of 100 μ M D22 and subtracted from the total data. The 100% values were defined as uptake in the absence of a tested substance, defining maximal uptake capacity. Inhibitions of the compound of interest were described as a percentage of the maximal uptake capacity.
(§3) Half-maximal inhibitory concentration ( IC50 ) values of each substance were calculated and plotted using GraphPad Prism 8.4.3 (GraphPad Software Inc., San Diego, CA, USA). IC50 was determined by non-linear regression, solving the equation Y=Bottom+(Top−Bottom)/(1+10^X−LogEC50) . […] All data stem from a minimum of three separate experiments (n≥ 3) executed in triplicates and are shown as mean ± SD.

hOCT2 [2] = target: T2, hOCT2 (Homo sapiens, UniProt O15244); experiment: [3H]MPP+ uptake inhibition assay, HEK293 cells stably expressing hOCT2; assay type: cell-based; conditions: for Effect on substrate uptake by hOCT2 (in words): [3H]MPP+ uptake, HEK293 hOCT2
T2 construct: expressed in transfected cells
T2 sequence (O15244 1-555): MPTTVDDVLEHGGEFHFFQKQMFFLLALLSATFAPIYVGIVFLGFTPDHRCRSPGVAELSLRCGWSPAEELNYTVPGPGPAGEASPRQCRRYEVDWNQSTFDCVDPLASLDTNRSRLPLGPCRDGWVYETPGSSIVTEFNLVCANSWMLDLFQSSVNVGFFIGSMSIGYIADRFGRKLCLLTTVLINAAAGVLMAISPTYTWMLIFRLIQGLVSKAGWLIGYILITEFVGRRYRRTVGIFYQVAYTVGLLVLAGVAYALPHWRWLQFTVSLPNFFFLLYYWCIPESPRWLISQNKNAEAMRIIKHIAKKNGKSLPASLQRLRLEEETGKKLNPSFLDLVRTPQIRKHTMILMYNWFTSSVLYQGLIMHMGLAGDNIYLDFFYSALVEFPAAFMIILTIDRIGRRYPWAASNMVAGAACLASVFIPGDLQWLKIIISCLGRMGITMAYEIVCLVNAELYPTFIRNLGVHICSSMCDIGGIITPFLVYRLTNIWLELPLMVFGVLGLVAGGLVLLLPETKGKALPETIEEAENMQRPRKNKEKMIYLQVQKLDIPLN
Procedure: as §1, §2, §3

hOCT3 [3] = target: T3, hOCT3 (Homo sapiens, UniProt O75751); experiment: [3H]MPP+ uptake inhibition assay, HEK293 cells stably expressing hOCT3; assay type: cell-based; conditions: for Effect on substrate uptake by hOCT3 (in words): [3H]MPP+ uptake, HEK293 hOCT3
T3 construct: expressed in transfected cells
T3 sequence (O75751 1-556): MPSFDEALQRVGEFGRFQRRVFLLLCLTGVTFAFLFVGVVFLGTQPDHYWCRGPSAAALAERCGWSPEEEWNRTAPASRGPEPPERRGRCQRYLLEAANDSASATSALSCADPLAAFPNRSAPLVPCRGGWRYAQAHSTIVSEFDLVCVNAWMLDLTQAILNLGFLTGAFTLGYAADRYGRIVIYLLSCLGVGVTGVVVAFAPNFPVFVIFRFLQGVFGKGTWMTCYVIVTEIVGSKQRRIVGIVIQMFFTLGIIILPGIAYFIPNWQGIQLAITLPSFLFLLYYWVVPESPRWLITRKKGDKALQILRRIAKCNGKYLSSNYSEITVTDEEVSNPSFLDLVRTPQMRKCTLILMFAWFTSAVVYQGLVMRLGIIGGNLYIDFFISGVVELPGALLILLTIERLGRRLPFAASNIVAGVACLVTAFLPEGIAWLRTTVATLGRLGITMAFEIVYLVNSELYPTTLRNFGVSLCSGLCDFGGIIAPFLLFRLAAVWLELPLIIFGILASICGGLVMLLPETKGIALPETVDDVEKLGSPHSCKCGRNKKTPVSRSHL
Procedure: as §1, §2, §3

hPMAT = target: T4, hPMAT (Homo sapiens, UniProt Q7RTT9); experiment: [3H]MPP+ uptake inhibition assay, HEK293 cells stably expressing hPMAT; assay type: cell-based; conditions: for Effect on substrate uptake by hPMAT (in words): [3H]MPP+ uptake, HEK293 hPMAT
T4 construct: expressed in transfected cells
T4 sequence (Q7RTT9 1-530): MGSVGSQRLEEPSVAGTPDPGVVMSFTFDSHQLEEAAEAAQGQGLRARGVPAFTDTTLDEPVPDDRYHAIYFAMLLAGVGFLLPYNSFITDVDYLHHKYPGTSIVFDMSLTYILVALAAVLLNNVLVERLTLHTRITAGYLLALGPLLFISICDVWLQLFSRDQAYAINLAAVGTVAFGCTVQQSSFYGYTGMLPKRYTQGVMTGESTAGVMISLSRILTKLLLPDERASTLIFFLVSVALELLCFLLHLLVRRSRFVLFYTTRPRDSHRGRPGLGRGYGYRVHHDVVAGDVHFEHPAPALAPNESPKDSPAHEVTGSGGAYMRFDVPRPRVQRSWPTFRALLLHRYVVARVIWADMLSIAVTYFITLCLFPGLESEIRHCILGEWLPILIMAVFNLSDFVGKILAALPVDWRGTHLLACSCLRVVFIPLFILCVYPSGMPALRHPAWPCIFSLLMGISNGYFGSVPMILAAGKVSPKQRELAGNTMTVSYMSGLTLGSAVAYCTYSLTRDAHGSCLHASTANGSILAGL
Procedure: as §1, §2, §3

hOCT1 [4] = target: T1, hOCT1; conditions: Table S1, supplementary reference list, cited from earlier work; for Ki: read-out: IC50 literature hOCT1 (Ki), Ki values; for IC50: read-out: IC50 literature hOCT1
hOCT2 [5] = target: T2, hOCT2; conditions: Table S1, supplementary reference list, cited from earlier work; for Ki: read-out: IC50 literature hOCT2 (Ki), Ki values
hOCT3 [6] = target: T3, hOCT3; conditions: Table S1, supplementary reference list, cited from earlier work
[7] = HEK293 stably expressing hPMAT, 0.05 μM [3H]MPP+, 10 min pre-incubation, 10 min uptake, brackets in Table S1 = 95%-CI, n.s. = non-significant
[8] = HEK293 stably expressing hOCT3, 0.05 μM [3H]MPP+, 10 min pre-incubation, 10 min uptake, brackets in Table S1 = 95%-CI, n.s. = non-significant
[9] = HEK293 stably expressing hOCT1, 0.05 μM [3H]MPP+, 10 min pre-incubation, 10 min uptake, brackets in Table S1 = 95%-CI, n.s. = non-significant, read-out: IC50 hOCT1 (inhibitory potency, [3H]MPP+ uptake)
[10] = HEK293 stably expressing hOCT2, 0.05 μM [3H]MPP+, 10 min pre-incubation, 10 min uptake, brackets in Table S1 = 95%-CI, n.s. = non-significant, read-out: IC50 hOCT2 (inhibitory potency, [3H]MPP+ uptake)
[11] = HEK293 stably expressing hPMAT, 0.05 μM [3H]MPP+, 10 min pre-incubation, 10 min uptake, brackets in Table S1 = 95%-CI, n.s. = non-significant, read-out: IC50 hPMAT (inhibitory potency, [3H]MPP+ uptake)
[12] = HEK293 stably expressing hOCT1, 0.05 μM [3H]MPP+, 10 min pre-incubation, 10 min uptake, brackets in Table S1 = 95%-CI, n.s. = non-significant
[13] = HEK293 stably expressing hOCT2, 0.05 μM [3H]MPP+, 10 min pre-incubation, 10 min uptake, brackets in Table S1 = 95%-CI, n.s. = non-significant

| Compound | IC50 (hOCT1 [1]) [µM] | IC50 (hOCT2 [2]) [µM] | IC50 hPMAT (inhibitory potency, [3H]MPP+ uptake) (hPMAT; [7]) | IC50 hOCT3 (inhibitory potency, [3H]MPP+ uptake) (hOCT3 [3]; [8]) | Effect on substrate uptake by hOCT3 (in words) (hOCT3 [3]) | Effect on substrate uptake by hPMAT (in words) (hPMAT) | other results |
| --- | --- | --- | --- | --- | --- | --- | --- |
| CNC1(c2ccccc2F)CCCCC1=O (centres unmarked) [2-Fluoro-deschloroketamine, 2-fluoro-deschloroketamine] | 14.1 | 19.2 | n.s. | – | – | – | IC50 (hOCT3 [3]): 265 µM |
| COC(=O)[C@H]1[C@@H](OC(=O)c2ccccc2)C[C@@H]2CC[C@H]1N2C [Cocaine, cocaine] | 6.66 | 27.8 | n.s. | n.s. | – | – | Ki (hOCT1 [4]): 85 ± 22 µM; Ki (hOCT2 [5]): 113 ± 21 µM |
| CCN1/C(=C/c2ccc3ccccc3[n+]2CC)C=Cc2ccccc21 [Decynium-22] | – | – | – | – | – | – | IC50 (hOCT1 [1]; [9]): 2.66 µM; IC50 (hOCT2 [2]; [10]): 4.56 µM; IC50 (hOCT3 [3]; HEK293 stably expressing hOCT3, 0.05 μM [3H]MPP+, 10 min pre-incubation, 10 min uptake, brackets in Table S1 = 95%-CI, n.s. = non-significant, read-out: IC50 hOCT3 (inhibitory potency, [3H]MPP+ uptake)): 0.16 µM; IC50 (hPMAT; [11]): 0.35 µM |
| CNC1(c2ccccc2Cl)CCCCC1=O (centres unmarked) [Ketamine, ketamine] | 23.5 | 12.5 | – | – | – | – | IC50 (hOCT3 [3]): 1030 µM; IC50 (hPMAT): 135 µM; IC50 literature hOCT1 (Km) (hOCT1 [4]; Km): 73.9 ± 15.2 µM; Ki (hOCT1 [4]): 115 ± 43.7 µM; IC50 literature hOCT2 (Km) (hOCT2 [5]; Km): 33.5 ± 20.3 µM; Ki (hOCT2 [5]): 22.7 ± 6.3 µM; IC50 literature hOCT3 (Km) (hOCT3 [6]; Km): 52.9 ± 15.0 µM; Ki (hOCT3 [6]; read-out: IC50 literature hOCT3 (Ki), Ki values): 226 ± 65 µM; IC50 (hOCT3 [6]; read-out: IC50 literature hOCT3, ASP+ as substrate): 440 µM |
| COC(=O)C(c1ccccc1)C1CCCCN1 (centres unmarked) [Methylphenidate, methylphenidate] | 0.36 | 28.8 | n.s. | n.s. | – | – | – |
| NC(=O)C[S+]([O-])C(c1ccccc1)c1ccccc1 (centres unmarked) [Modafinil, modafinil] | – | – | n.s. | n.s. | did not interact | did not interact | IC50 hOCT1 (inhibitory potency, [3H]MPP+ uptake) (hOCT1 [1]; [12]): n.s.; Effect on substrate uptake by hOCT1 (in words) (hOCT1 [1]): did not interact; IC50 hOCT2 (inhibitory potency, [3H]MPP+ uptake) (hOCT2 [2]; [13]): n.s.; Effect on substrate uptake by hOCT2 (in words) (hOCT2 [2]): did not interact |
| CN(C)C[C@H]1CCCC[C@]1(O)c1cccc(O)c1 [O-Desmethyltramadol, O-desmethyltramadol] | 24.2 | 372 | n.s. | n.s. | No interaction | – | IC50 (hOCT1 [4]): 172 µM |
| CCC1(c2ccccc2)C(=O)NC(=O)NC1=O [Phenobarbital, phenobarbital] | – | – | – | n.s. | not interacting | not interacting | IC50 hOCT1 (inhibitory potency, [3H]MPP+ uptake) (hOCT1 [1]; [12]): n.s.; Effect on substrate uptake by hOCT1 (in words) (hOCT1 [1]): increased uptake of substrate; IC50 hOCT2 (inhibitory potency, [3H]MPP+ uptake) (hOCT2 [2]; [13]): n.s.; Effect on substrate uptake by hOCT2 (in words) (hOCT2 [2]): increased uptake of substrate; IC50 (hPMAT): 1030 µM |
| CN(C)CCc1c[nH]c2cccc(O)c12 [Psilocin, psilocin] | 63.5 | – | – | n.s. | did not inhibit | did not inhibit | Effect on substrate uptake by hOCT1 (in words) (hOCT1 [1]): did not inhibit; IC50 hOCT2 (inhibitory potency, [3H]MPP+ uptake) (hOCT2 [2]; [13]): n.s.; Effect on substrate uptake by hOCT2 (in words) (hOCT2 [2]): did not inhibit; IC50 (hPMAT): 698 µM |
| CCC[C@H](C(=O)c1ccccc1)N1CCCC1 [R- α -PVP, R- α -pyrrolidinovalerophenone] | 2.15 | 13.1 | n.s. | – | – | increased uptake of substrate | IC50 (hOCT3 [3]): 1020 µM |
| CN(C)CCC[C@]1(c2ccc(F)cc2)OCc2cc(C#N)ccc21 [R-Citalopram, R-citalopram] | – | – | – | – | – | – | IC50 (hOCT1 [1]; [9]): 5.11 µM; IC50 (hOCT2 [2]; [10]): 46.6 µM; IC50 (hPMAT; [11]): 58.3 µM |
| CCC[C@@H](C(=O)c1ccccc1)N1CCCC1 [S- α -PVP, S- α -pyrrolidinovalerophenone] | 1.07 | 15 | n.s | – | – | increased uptake of substrate | IC50 (hOCT3 [3]): 457 µM |
| CN(C)CCC[C@@]1(c2ccc(F)cc2)OCc2cc(C#N)ccc21 [S-Citalopram, S-citalopram] | – | – | – | – | – | – | IC50 (hOCT1 [1]; [9]): 7.15 µM; IC50 (hOCT2 [2]; [10]): 59.9 µM; IC50 (hPMAT; [11]): 160 µM |
| COc1cccc(C2(O)CCCCC2CN(C)C)c1 (centres unmarked) [Tramadol, tramadol] | 5.6 | 64.1 | – | n.s. | No interaction | fails to fully inhibit | Effect on substrate uptake by hOCT2 (in words) (hOCT2 [2]): fails to fully inhibit; IC50 (hPMAT): 74.2 µM; IC50 (hOCT1 [4]): 30 µM |
